Here are results for eight molecules from US7026328B2, “Heterocyclic compounds which inhibit leukocyte adhesion mediated by α4 integrins” (Elan Pharmaceuticals, Inc., priority 2002, dated 2006).

Each structure is given as a SMILES string.

By IC50 is commonly meant the concentration at which inhibition is half-maximal. Read a low IC50 as inhibition by little substance.

One series concerns the target T1, α4β1 integrin (Homo sapiens, UniProt P05556+P13612).
T1 construct: Jurkat™ cells (maintained in log phase growth) were labeled with Calcein AM; endogenous in cells; host or cells: Jurkat cells
The series can be described thus: α4β1 Integrin Adhesion Assay: Jurkat Cell Adhesion to Human Plasma Fibronectin. It counts as cell-based. Conditions: Jurkat cells. As for the experimental part: 96 well plates (Costar 3590 EIA plates) were coated with human fibronectin (Gibco/BRL, cat #33016–023) at a concentration of 10 μg/mL overnight at 4° C. The plates were then blocked with a solution of bovine serum albumin (BSA; 0.3%) in saline. Jurkat™ cells (maintained in log phase growth) were labeled with Calcein AM according to the manufacturer's instructions, and suspended at a concentration of 2×10^6 cells/mL in Hepes/Saline/BSA. The cells were then exposed to test and control compounds for 30 minutes at room temperature before transfer to individual wells of the fibronectin coated plate. Adhesion was allowed to occur for 35 minutes at 37° C. The wells were then washed by gentle aspiration and pipetting with fresh saline. Fluorescence associated with the remaining adherent cells was quantified using a fluorescence plate reader at EX 485/EM 530.
Cell cultures were prepared by first splitting the stationary phase Jurkat™ cells at 1:10 on day one, and 1:2 on day two to perform assay on day 3. The cells split 1:10 on day one were split 1:4 on day 3 for a day 4 assay.
The assay plates were prepared by first making a working solution of Gibco/BRL Human Fibronectin (cat #33016-023) in PBS++, at 10 μg/mL. A Costar 3590 EIA plate was then coated with 50 μL/well for 2 hours at room temperature (thought it can also be left overnight at 4° C.). Finally the plate was asperated and blocked with Hepes/Saline Buffer, 100 μL/well, for 1 hour at RT followed by washing 3× with 150 μL of PBS++.
Compound dilutions were accomplished by preparing 1:3 serial dilutions of compounds as follows. For each plate (4 compounds/plate) 600 μL were added to 4 Bio-Rad Titertubes in a Titertube rack. […] Using Falcon Flexiplates, 100 μL of Hepes/Saline buffer or human serum were added to rows B through G. A multi-channel pipetter set to 180 μL was used to with four tips spaced evenly the pipetter. Each set of four tubes was mixed 5 times and 180 μL of 2× compound was transferred to the first column of each compound dilution in Row B, leaving Row A empty. 180 μL were added to the other wells in Row A. Serial dilutions were performed down the plate by transferring 50 μL to the next dilution and mixing 5 times, changing tips each time after mixing.
A 20 μg/mL solution in Hepes/Saline buffer or human serum, of 21/6 antibody was the positive control and was set aside in a reagent trough to add to cell suspension plate.
The cell staining was accomplished by first harvesting the log-phase Jurkat™ cells by centrifugation in 50 mL tubes (1100 rpm for 5 minutes). The cells were resuspended in 50 mL PBS++, spun, and resuspend in 20 mL PBS++. The cells were stained by adding 20 μL of Calcein AM for 30 minutes RT. The volume was brought to 50 mL with Hepes/Saline buffer and the cells were counted, spun, and resuspend to 2×10^6 cells/mL in Hepes/Saline buffer or human serum.
The compounds were incubated using the following procedure. In a new flexiplate, 65 μL of stained cells were added to Rows B through H. Then 65 μL of 2× compounds were added to the appropriate rows following the plate setup and mixed three times. 65 μL of 2×-21/6 antibody were added to Row H and mixed 3×. Finally the plate was incubated at room temperature for 30 minutes.
Fibronectin adhesion was measured using a fluorescent plate reader at EX 485/EM 530 after the following work up procedure. After incubation, the cells were mixed three times and 100 μL were transfered to the Fibronectin coated plates and incubated at 37° C. for about 35 minutes. Each plate was washed, row by row, by gently pipetting 100 μL of RT. PBS++ down the sides of the wells and turning the plate 90 degrees to aspirate. This procedure was repeated for a total of 3 washes. Each well was filled with 100 μL after washing by pipetting down the side of the well.
An IC50 value was calculated for each compound, both in the presence of the human serum and in the absence of human serum.

Series [1] can be described thus: Cassette Dosing and Serum Analysis for Determination of Bioavailability. It counts as in vivo, rat. Conditions: average AUC 0→12 h, male Sprague Dawley rats, single oral cassette dose (6 compounds, total dose 10 mg/kg), plasma. As for the experimental part: The cassette included 5 test articles and a standard compound, for a total dose of 10 mg/kg. Each compound/test article was converted to the sodium salt with equimolar 1 N NaOH and dissolved in water at 2 mg/mL. The cassette was prepared by mixing equal volumes of each of the six solutions. The cassette dosing solution was mixed well and then the pH was adjusted to 7.5–9. The dosing solution was prepared the day before the study and stirred overnight at room temperature.
Male Sprague Dawley (SD) rats from Charles River Laboratories, 6–8 weeks old were used in this screen. Rats were quarantined for at least one day and had continuous access to food and water. On the night before the administration of the cassette, the rats were fasted for approximately 16 h.
Four SD rats were assigned in each cassette. A single dose of the dosing solution was administered orally to each rat. The dosing volume (5 mL/kg) and time were recorded and rats were fed 2 h after dosing.
Blood samples were collected via cardiac puncture at the following time points: 4 h, 8 h and 12 h. Immediately prior to blood collection, rats were anesthetized with CO2 gas within 10–20 seconds. After the 12-h samples were collected, the rats were euthanized via CO2 asphyxiation followed by cervical dislocation.
Blood samples were kept in heparinized microtainer tubes under sub-ambient temperature (4° C.) before they were processed. Blood samples were centrifuged (10000 rpm for 5 minutes) and plasma samples were removed and stored in a −20° C. freezer until analyzed for drug levels. Drug levels in the plasma were analyzed using the following protocol for direct plasma precipitation.
The in vivo plasma samples were prepared in a 1.5 mL 96-well plate, by adding, in order, 100 μL of the test plasma, 150 μL of methanol, followed by vortexing for 10–20 seconds. 150 μL of 0.05 ng/μL of an Internal Standard in acetonitrile were added and vortexed for 30 seconds.
The standard curve samples were prepared in a 1.5 mL 96-well plate, by adding, in order, 100 μL of control mouse plasma, followed by 150 μL of methanol and vortexing for 10–20 seconds. 150 μL of 0.05 ng/μL of an Internal Standard in acetonitrile were added and vortexed for 30 seconds. The samples were spiked with 0–200 ng (10 concentrations) of the compound of interest in 50% methanol to obtain a standard curve range of 0.5 ng/mL–2,000 ng/mL. Again, the sample was vortexed for 30 seconds.
The samples were then spun for 20–30 minutes at 3000 rpm in an Eppendorf microfuge before 80–90% of supernatant was transferred into a clean 96-well plate. The organic solvent was then evaporated until the samples were dry (under N2 at 40° C./30–60 min (Zymark Turbovap)).
The residue was then dissolved in […] mobile phase (50% CH3OH/0.1% TFA). LC/MS/MS was then run using a PE-Sciex API-3000 triple quadurpole mass spectrometer (SN0749707), Perkin-Elmer, Series200auto-sampler, and shimadzu 10A pump. Acquisition was done with PE-Sciex Analyst (v1.1) and data analysis and quantification were accomplished using PE-Sciex Analyst (v1.1). A 5–50 μL sample volume was injected onto a reverse phase ThermoHypersil DASH-18 column (Keystone 2.0×20 mm, 5 μm, PN: 8823025-701) using a mobile phase of 25% CH3OH, 0.1% TFA-100% CH3OH, 0.1% TFA. The run time was about 8 minutes at a flow rate of about 300 μL/minutes.
The Area Under the Curve (AUC) was calculated using the linear trapezoidal rule from t=0 to the last sampling time tx (see Handbook of Basic Pharmacokinetics, Wolfgang A. Ritschel and Gregory L. Kearns, 5th ed, 1999). AUC^0→tx=S((Cn+Cn+1)/2))·(tn+1−tn)[(μg/mL)h]

T1 sequence (P13612 34-1032): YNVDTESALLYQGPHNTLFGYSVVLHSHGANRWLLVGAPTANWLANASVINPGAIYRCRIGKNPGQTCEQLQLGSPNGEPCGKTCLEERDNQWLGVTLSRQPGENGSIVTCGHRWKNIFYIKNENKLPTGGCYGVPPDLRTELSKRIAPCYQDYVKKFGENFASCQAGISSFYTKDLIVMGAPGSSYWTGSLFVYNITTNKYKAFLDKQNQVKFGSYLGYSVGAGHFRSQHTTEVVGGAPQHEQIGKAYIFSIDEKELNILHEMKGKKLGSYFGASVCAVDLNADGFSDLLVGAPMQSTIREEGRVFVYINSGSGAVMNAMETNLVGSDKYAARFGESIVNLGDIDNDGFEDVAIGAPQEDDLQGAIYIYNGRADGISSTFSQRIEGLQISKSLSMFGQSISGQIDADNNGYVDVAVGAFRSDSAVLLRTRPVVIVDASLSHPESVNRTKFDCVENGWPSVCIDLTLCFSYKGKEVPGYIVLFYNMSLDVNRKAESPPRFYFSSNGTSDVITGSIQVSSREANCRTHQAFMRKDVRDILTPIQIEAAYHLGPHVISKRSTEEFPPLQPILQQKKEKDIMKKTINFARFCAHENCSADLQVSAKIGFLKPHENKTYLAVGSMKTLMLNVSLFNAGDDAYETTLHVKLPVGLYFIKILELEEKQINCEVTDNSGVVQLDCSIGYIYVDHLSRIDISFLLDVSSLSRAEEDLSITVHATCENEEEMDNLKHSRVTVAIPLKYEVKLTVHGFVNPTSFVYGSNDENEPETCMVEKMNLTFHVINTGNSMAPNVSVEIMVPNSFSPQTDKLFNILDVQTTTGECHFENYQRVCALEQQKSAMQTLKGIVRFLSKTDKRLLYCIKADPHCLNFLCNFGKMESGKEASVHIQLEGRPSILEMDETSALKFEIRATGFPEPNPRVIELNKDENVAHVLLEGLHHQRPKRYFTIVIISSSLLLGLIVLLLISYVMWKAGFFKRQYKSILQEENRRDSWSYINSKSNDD
T1 sequence (P05556 21-798): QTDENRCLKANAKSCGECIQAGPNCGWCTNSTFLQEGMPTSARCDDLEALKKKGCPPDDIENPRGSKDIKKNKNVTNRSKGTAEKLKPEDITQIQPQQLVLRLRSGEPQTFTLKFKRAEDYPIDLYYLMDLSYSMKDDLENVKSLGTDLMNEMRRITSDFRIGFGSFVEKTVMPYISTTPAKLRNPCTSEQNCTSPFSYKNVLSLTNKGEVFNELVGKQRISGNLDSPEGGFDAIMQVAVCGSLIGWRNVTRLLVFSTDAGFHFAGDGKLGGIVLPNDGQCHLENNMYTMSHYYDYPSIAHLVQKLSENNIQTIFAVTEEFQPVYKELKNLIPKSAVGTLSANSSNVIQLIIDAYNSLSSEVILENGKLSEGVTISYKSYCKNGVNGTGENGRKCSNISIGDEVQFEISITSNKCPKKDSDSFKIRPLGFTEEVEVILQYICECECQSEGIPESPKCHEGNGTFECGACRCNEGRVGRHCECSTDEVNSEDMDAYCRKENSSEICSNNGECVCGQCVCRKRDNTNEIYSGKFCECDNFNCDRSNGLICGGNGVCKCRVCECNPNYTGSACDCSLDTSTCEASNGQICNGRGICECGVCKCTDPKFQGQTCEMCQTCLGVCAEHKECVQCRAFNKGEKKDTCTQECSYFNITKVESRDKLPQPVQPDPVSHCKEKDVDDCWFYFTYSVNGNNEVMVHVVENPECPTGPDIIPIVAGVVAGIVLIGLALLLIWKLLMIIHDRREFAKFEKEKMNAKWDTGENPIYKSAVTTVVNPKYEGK

For the molecule `CCN(CC)c1ncc(N(CC)S(=O)(=O)c2ccc(Cl)cc2)c(N[C@@H](Cc2ccc(OC(=O)N3CCC3)cc2)C(=O)O)n1` [Example 10, N-(2-[N′,N′-diethylamino]-5-[N″-(4-chlorophenylsulfonyl]-N″-ethylamino]pyrimidin-4-yl)-4′-(azetidin-1-ylcarbonyloxy)-L-phenylalanine], the half-maximal inhibitory concentration (IC50) at α4β1 integrin (containing human serum) is 82.9 nM; against α4β1 integrin (without the human serum) it was 4.06 nM. Also, the AUC in series [1] is recorded as 2.1113 (μg/mL)h.
For `CCN(CC)c1ncc(N(C)S(=O)(=O)c2ccc(F)cc2F)c(N[C@@H](Cc2ccc(OC(=O)N3CCCC3)cc2)C(=O)O)n1` [Example 11, N-(2-[N′,N′-diethylamino]-5-[N″-(2,4-difluorophenylsulfonyl)-N″-methylamino]pyrimidin-4-yl)-4′-(pyrrolidin-1-ylcarbonyloxy)-L-phenylalanine], the concentration for half-maximal inhibition (IC50) against α4β1 integrin (containing human serum) is 483 nM; on α4β1 integrin (without the human serum), 8.37 nM. In series [1], the AUC is listed as 14.818 (μg/mL)h.
Regarding `CCN(CC)c1ncc(N(CC)S(=O)(=O)c2ccc(F)cc2F)c(N[C@@H](Cc2ccc(OC(=O)N3CCCC3)cc2)C(=O)O)n1` [Example 12, N-(2-[N′,N′-diethylamino]-5-[N″-(2,4-difluorophenylsulfonyl)-N″-ethylamino]pyrimidin-4-yl)-4′-(pyrrolidin-1-ylcarbonyloxy)-L-phenylalanine], the IC50 against α4β1 integrin (containing human serum) is 227 nM; against α4β1 integrin (without the human serum), 8.71 nM. The AUC in series [1] was 4.7816 (μg/mL)h.
Taken in the same sequence, the figures for `CCN(CC)c1ncc(N(C)S(=O)(=O)c2ccc(F)cc2F)c(N[C@@H](Cc2ccc(OC(=O)N3CCC3)cc2)C(=O)O)n1` [Example 13, N-(2-[N′,N′-diethylamino]-5-[N″-(2,4-difluorophenylsulfonyl)-N″-methylamino]pyrimidin-4-yl)-4′-(azetidin-1-ylcarbonyloxy)-L-phenylalanine] were 89.5 nM, 2.45 nM and 1.283 (μg/mL)h.
Turning to `CCN(CC)c1ncc(N(CC)S(=O)(=O)c2ccc(F)cc2F)c(N[C@@H](Cc2ccc(OC(=O)N3CCC3)cc2)C(=O)O)n1` [Example 14, N-(2-[N′,N′-diethylamino]-5-[N″-(2,4-difluorophenylsulfonyl)-N″-ethylamino]pyrimidin-4-yl)-4′-(azetidin-1-ylcarbonyloxy)-L-phenylalanine], the results for the IC50 at α4β1 integrin (containing human serum) and at α4β1 integrin (without the human serum) were 51.5 nM and 3.39 nM, respectively. In addition, the AUC in series [1] is on record as 0.3566 (μg/mL)h.
Turning to `C#CCN(c1cnc(N(CC)CC)nc1N[C@@H](Cc1ccc(OC(=O)N2CCCC2)cc1)C(=O)O)S(=O)(=O)c1ccc(F)cc1F` [Example 16, N-(2-[N′,N′-diethylamino]-5-[N″-(2,4-difluorophenylsulfonyl)-N″-propargylamino]pyrimidin-4-yl)-4′-(pyrrolidin-1-ylcarbonyloxy)-L-phenylalanine], the IC50 is 565 nM at α4β1 integrin (containing human serum) and 13.7 nM against α4β1 integrin (without the human serum). Also, the AUC in series [1] is 23.808 (μg/mL)h.
Taken in the same sequence, the figures for `C#CCN(c1cnc(N(CC)CC)nc1N[C@@H](Cc1ccc(OC(=O)N2CCC2)cc1)C(=O)O)S(=O)(=O)c1ccc(F)cc1F` [Example 17, N-(2-[N′,N′-diethylamino]-5-[N″-(2,4-difluorophenylsulfonyl)-N″-propargylamino]pyrimidin-4-yl)-4′-(azetidin-1-ylcarbonyloxy)-L-phenylalanine] were 125 nM, 5.24 nM and 0.8628 (μg/mL)h.
Taken in the same sequence, the figures for `C#CCN(c1cnc(N(CC)CC)nc1N[C@@H](Cc1ccc(OC(=O)N2CCC2)cc1)C(=O)O)S(=O)(=O)c1ccc(F)cc1` [Example 18, N-(2-[N′,N′-diethylamino]-5-[N″-(4-fluorophenylsulfonyl)-N″-propargylamino]pyrimidin-4-yl)-4′-(azetidin-1-ylcarbonyloxy)-L-phenylalanine] were 480 nM, 5.86 nM and 4.7528 (μg/mL)h.
